Measurements from patent publication US7879887B2, “α-amino acid derivatives and medicaments containing the same as an active ingredient” (Nissan Chemical Industries, Ltd., priority 2006, dated 2011).

Key:
[1] = tested on: prostate cancer cell line DU 145; experiment: Cell proliferation inhibitory activity, DU 145; format: cell-based, human; conditions: Homo sapiens, 96 h, cells counted 4 days later with Cell Counting Kit-8
How it was run: (§1)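 IC50 values come from a 4-day proliferation assay in which cells were cultured with multiple test compound concentrations and quantified by Cell Counting Kit-8.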

[2] = tested on: colon carcinoma cell line SW620; experiment: Cell proliferation inhibitory activity, SW620; format: cell-based, human; conditions: Homo sapiens, SW-620, 96 h, cells counted 4 days later with Cell Counting Kit-8
How it was run: as §1

CDK1/Cyclin B complex = target: T1, CDK1/Cyclin B complex (Homo sapiens, UniProt P06493); experiment: In vitro kinase assay, CDK1/Cyclin B complex; format: biochemical; conditions: recombinant protein (Upstate)
T1 construct: purchased Upstate Inc. 14-450
T1 sequence (P06493 whole entry): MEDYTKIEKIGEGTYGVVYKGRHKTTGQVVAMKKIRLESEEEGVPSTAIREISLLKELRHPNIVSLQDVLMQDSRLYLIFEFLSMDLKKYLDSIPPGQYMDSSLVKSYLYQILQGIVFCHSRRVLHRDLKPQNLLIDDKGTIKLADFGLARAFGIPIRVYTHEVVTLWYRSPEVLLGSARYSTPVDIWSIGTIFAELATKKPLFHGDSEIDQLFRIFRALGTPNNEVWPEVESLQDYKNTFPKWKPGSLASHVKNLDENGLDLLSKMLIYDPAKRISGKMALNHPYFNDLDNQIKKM
T1 sequence (P14635 whole entry partner): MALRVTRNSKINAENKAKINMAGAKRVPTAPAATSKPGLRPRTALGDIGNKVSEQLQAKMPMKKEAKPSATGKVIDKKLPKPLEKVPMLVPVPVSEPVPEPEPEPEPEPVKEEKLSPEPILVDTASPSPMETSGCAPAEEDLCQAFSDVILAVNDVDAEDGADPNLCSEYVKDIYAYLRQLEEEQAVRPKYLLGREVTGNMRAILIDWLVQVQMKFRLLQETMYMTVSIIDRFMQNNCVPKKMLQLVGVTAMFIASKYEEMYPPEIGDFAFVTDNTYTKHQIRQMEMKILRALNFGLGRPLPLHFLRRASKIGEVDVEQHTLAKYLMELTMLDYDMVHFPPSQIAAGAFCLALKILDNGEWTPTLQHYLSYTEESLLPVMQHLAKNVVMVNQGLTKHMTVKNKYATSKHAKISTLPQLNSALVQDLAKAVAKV
How it was run: (§2)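 Recombinant human enzymes assayed per supplier protocol. IC50 derived with compound-free wells set as 0% inhibition and compound- and enzyme-free wells as 100% inhibition.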

CDK3/Cyclin E complex = target: T2, CDK3/Cyclin E complex (Homo sapiens, UniProt Q00526); experiment: In vitro kinase assay, CDK3/Cyclin E complex; format: biochemical; conditions: recombinant protein (Upstate); read-out: CDK3/cyclinE IC50
T2 construct: purchased Upstate Inc. 14-487
T2 sequence (Q00526 whole entry): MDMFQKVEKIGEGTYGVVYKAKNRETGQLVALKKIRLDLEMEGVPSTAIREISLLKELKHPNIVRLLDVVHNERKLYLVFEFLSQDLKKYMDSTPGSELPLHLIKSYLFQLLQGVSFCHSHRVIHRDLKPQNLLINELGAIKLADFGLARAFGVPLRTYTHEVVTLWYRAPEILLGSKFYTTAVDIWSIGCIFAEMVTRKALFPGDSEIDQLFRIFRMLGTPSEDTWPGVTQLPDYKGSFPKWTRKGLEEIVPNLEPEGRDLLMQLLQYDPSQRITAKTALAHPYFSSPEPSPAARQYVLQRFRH
T2 sequence (P24864 whole entry partner): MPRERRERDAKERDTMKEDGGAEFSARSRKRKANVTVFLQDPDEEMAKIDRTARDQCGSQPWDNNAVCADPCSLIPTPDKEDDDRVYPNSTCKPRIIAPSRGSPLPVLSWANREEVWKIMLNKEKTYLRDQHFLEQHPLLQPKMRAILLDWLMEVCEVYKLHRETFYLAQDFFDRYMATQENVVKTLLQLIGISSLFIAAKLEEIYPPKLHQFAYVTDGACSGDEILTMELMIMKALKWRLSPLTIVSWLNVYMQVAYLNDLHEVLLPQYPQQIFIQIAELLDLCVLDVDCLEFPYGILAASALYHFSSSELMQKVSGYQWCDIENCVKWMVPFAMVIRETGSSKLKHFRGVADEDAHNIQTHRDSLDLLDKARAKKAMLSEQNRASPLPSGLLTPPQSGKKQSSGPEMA
Method: (§3) Inhibitory activity against Aurora A, CDK1/Cyclin B complex, CDK2/Cyclin E complex and CDK3/Cyclin E complex were measured by in vitro kinase assay using recombinant proteins.

[3] = tested on: lung carcinoma cell line NCI-H460; experiment: Cell proliferation inhibitory activity, NCI-H460; format: cell-based; conditions: Homo sapiens, 96 h, cells counted 4 days later with Cell Counting Kit-8
How it was run: as §1

[4] = tested on: ovarian cancer cell line IGROV1; experiment: Cell proliferation inhibitory activity, IGROV1; format: cell-based; conditions: Homo sapiens, IGROV-1, 96 h, cells counted 4 days later with Cell Counting Kit-8
Method: (§4) Evaluations were carried out using colon carcinoma cell line SW620 (Cat. No. CCL-227), lung carcinoma cell line NCI-H460 (Cat. No. HTB-177), prostate cancer cell line DU 145 (Cat. No. HTB-81), breast cancer cell line MDA-MB-231 (Cat. No. HTB26) and leukemia cell line KG-1a (Cat. No. CCL-246.1) purchased from ATCC, pancreatic cancer cell line MIAPaCa-2 (Cat. No. CRL-1420) purchased from Dainippon Pharmaceutical, and ovarian cancer cell line IGROV1 received from the Netherland Cancer Institute. The cells were cultured under the conditions recommended by the supplier for each cell line, or with respect to IGROV1, according to the method described in Cancer Res. 59: 4559-4563, 1999. Cells suspended in media were added to solutions containing the test substances at various concentrations followed by culturing in a 5% CO2 incubator at 37° C. The numbers of cells were counted 4 days later with the Cell Counting Kit-8. IC50 values were calculated by assigning measured values in the case of not containing a test substance to an inhibition of 0%, and assigning measured values in the case of not containing a test substance or cells to an inhibition of 100%.

[5] = tested on: pancreatic cancer cell line MIAPaCa-2; experiment: Cell proliferation inhibitory activity, MIAPaCa-2; format: cell-based; conditions: Homo sapiens, MIA PaCa-2, 96 h; cells counted 4 days later, Cell Counting Kit-8
Method: as §4

Aurora A = target: T3, Aurora A (Homo sapiens, UniProt O14965); experiment: In vitro kinase assay, Aurora A; format: biochemical; conditions: recombinant protein (Upstate)
T3 construct: purchased Upstate Inc. 14-511
T3 sequence (O14965 1-403): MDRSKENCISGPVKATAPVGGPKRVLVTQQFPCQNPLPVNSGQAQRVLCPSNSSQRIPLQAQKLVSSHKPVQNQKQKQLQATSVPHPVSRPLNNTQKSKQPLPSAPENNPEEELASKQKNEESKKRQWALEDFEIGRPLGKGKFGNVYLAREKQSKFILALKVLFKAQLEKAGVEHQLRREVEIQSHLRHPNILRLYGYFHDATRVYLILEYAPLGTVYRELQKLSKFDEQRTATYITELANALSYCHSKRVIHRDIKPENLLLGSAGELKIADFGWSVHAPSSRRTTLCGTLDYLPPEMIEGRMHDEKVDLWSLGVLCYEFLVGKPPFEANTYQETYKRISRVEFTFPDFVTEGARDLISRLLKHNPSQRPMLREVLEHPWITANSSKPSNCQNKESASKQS
How it was run: as §2

[6] = tested on: breast cancer cell line MDA-MB-231; experiment: Cell proliferation inhibitory activity, MDA-MB-231; format: cell-based; conditions: Homo sapiens, 96 h, cells counted 4 days later with Cell Counting Kit-8
Method: as §4

leukemia cell line KG-1a = experiment: Cell proliferation inhibitory activity, KG-1a; format: cell-based; conditions: Homo sapiens, 96 h, cells counted 4 days later with Cell Counting Kit-8
How it was run: as §1

CDK2/Cyclin E complex = CDK2/Cyclin E complex (Homo sapiens, UniProt P24941); experiment: In vitro kinase assay, CDK2/Cyclin E complex; format: biochemical; conditions: recombinant protein (Upstate); read-out: CDK2/cyclinE IC50
Method: as §3

recombinant human βARK1 = target: T4, recombinant human βARK1 (Homo sapiens, UniProt P25098); experiment: Inhibitory activity against βARK1 (33P phosphorylation of synthetic peptide); format: biochemical; conditions: recombinant human βARK1, 60 minutes at room temperature
T4 construct: made in house; host or cells: Sf-9 insect cells (baculovirus, pBacPAK8)
T4 sequence (P25098 1-689): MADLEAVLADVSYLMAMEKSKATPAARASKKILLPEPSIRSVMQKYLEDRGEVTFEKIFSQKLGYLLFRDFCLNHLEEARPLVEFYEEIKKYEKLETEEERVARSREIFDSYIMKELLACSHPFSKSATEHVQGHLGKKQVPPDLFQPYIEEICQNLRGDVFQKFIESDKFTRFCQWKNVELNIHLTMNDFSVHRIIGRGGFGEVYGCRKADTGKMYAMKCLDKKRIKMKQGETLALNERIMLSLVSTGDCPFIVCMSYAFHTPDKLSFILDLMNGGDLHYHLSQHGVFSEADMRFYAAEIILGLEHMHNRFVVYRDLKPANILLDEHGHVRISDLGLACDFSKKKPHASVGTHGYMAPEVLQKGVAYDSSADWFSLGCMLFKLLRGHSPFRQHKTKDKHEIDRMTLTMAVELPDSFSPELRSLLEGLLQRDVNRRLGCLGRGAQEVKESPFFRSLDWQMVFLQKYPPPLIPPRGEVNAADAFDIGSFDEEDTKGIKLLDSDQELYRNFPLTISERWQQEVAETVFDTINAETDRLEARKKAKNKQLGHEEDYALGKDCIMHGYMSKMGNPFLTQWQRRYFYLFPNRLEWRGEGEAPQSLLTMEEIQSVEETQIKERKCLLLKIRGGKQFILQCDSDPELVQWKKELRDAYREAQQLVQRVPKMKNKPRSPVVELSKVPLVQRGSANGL
Method: Human βARK1 was amplified by PCR based on the base sequence of human βARK1 mRNA registered in GenBank (Accession No. M80776) using a human leukocyte cDNA library (Gibco BRL Cat. No. 10421-022) as a template. The amplified cDNA fragment was inserted into a pBacPAK8 vector (Clontech) to construct a plasmid.
Recombinant human βARK1 was expressed using the BacPAK Baculovirus Expression System (Clontech, Cat. No. K1601-1). 1×10^6 Sf-9 cells were adhered to a 35 mm dish in 2.5 mL of TMN-FH Insect Medium containing 10 vol % FBS (Pharminogen, Cat. No. PM-21227M) and cultured overnight at 27° C. On the following day, the medium was removed and 500 ng of the above plasmid, BacPAK6 viral DNA cleaved with Bsu36I (5 μL) and 1.5 mL of the same medium mixed with 4 μL of Bacfectin were added followed by culturing for 5 hours, further adding 1.5 mL of medium and subsequently culturing for 5 days. […] The culture supernatant after 5 days was recovered and a plaque assay was carried out to isolate single plaques. These were then infected into Sf-9 cells and the resulting culture supernatant was designated as Passage 1 (1−3×10^11 pfu/mL). Passage 1 was added to 3×10^7 Sf-9 cells to a multiplicity of infection (MOI) of 0.1 (pfu/cell), suspension culturing was carried out for 5 days using a spinner flask, and the resulting culture supernatant was designated as Passage 2 (4×10^10 pfu/mL) and used as a viral liquid for large-volume expression.
Sf-9 cells at 3×10^9 cells/200 mL were infected by adding Passage 2 to an MOI of 100 followed by addition of medium to bring to a liquid volume of 2 L and further culturing for 3 days. After recovering the cells by centrifugation and washing three times with PBS, the cells were suspended in 100 mL of Lysis Buffer (20 mmol/L HEPES-HCl (pH 7.2), 5 mmol/L EDTA, 3 mmol/L phenylmethylsulfonyl fluoride (PMSF)). After lysing the cells by ultrasonic treatment at low temperature, the supernatant was recovered by centrifuging (45,000×g, 15 minutes) (sup1). NaCl was added to the resulting supernatant to a final concentration of 250 mmol/L followed by ultracentrifugation (300,000×g, 60 minutes) and using the subsequent supernatant as a crude cell extract (sup2).
Purification was carried out with reference to the literature (Benovic, J. L., Methods Enzymol. 1991; 200: 351-362; Kim, C. M. et al., Receptor 1993; 3: 39-55; Sohlemann, P. et al., FEBS Letters 1993; 324: 59-62). The crude cell extract was accurately brought to a volume of 400 mL with Buffer C (20 mmol/L HEPES-HCl (pH 7.2), 5 mmol/L EDTA, 0.02 vol % Triton X-100) followed by loading onto a 50 mL SP-Sepharose FF (Amersham Pharmacia Biotech) column equilibrated with Buffer C. […] ETA was carried out on each fraction using anti-GRK2 antibody (Santa-Cruz Cat. No. SC-562) and the positive fractions were collected (GRK2=βARK1). This was then diluted three-fold with Buffer C and loaded on a 5 mL HiTrap Heparin column (Amersham Pharmacia Biotech) column equilibrated with Buffer C. After washing the column with Wash Buffer (100 mmol/L NaCl, Buffer C), the column was eluted with an NaCl concentration gradient (100 to 600 mmol/L NaCl for 100 minutes, flow rate: 1 mL/min). The positive fractions as determined by ETA were collected and stored in a freezer at −80° C.
A synthetic peptide having an amino acid sequence of biotinated-[…] was used in accordance with a previous report (Chen, C. Y. et al., J. Biol. Chem. 1993; 268: 7825-7831). This synthetic peptide can also be synthesized with reference to known synthesis methods (for example, Chen, C. Y. et al., J. Biol. Chem. 1993; 268: 7825-7831, Biochemistry 1991; 30: 5118-5125). 2 μl of a DMSO solution in which the test compound was diluted to as to be […] the final concentration was dispensed into a 96-well plate (round bottom) (Falcon 351190) (final concentration: 4 vol % DMSO). […]

| SMILES | IC50 [1] [nM] | IC50 [2] [nM] | IC50 (CDK1/Cyclin B complex) [nM] | IC50 (CDK3/Cyclin E complex) [nM] | IC50 [3] [nM] | IC50 [4] [nM] | IC50 [5] [nM] | IC50 (Aurora A) [nM] | IC50 [6] [nM] | IC50 (leukemia cell line KG-1a) [nM] | IC50 (CDK2/Cyclin E complex) [nM] | IC50 (recombinant human βARK1) [nM] |
| --- | --- | --- | --- | --- | --- | --- | --- | --- | --- | --- | --- | --- |
| CC(Nc1cccc(O)c1)C(=O)Nc1nc2ccc3[nH]ncc3c2s1 (centres unmarked) [compound 23] | 1600 | 500 | 150 | 47 | 1400 | 1300 | 3500 | 47 | 1600 | < 100 | 30 |  |
| CC(Nc1ccc(Cl)cc1)C(=O)Nc1nc2ccc3[nH]ncc3c2s1 (centres unmarked) [compound 24] | 3200 | 900 |  | 75 |  | 4600 | 4800 |  | 3800 | < 100 | 50 | 8 |
| CCC(=O)Nc1cc(NC(C)(C)C(=O)Nc2nc3c(C(F)(F)F)cc4[nH]ncc4c3s2)ccc1F [compound 76] | 1800 | 900 |  | 124 | 1500 | 2700 | 4900 |  | 4600 | 300 | 294 | 9.3 |
| CC(C)(Nc1ccc(Cl)c(OCC(O)CO)c1)C(=O)Nc1nc2c(C(F)(F)F)cc3[nH]ncc3c2s1 (centres unmarked) [compound 99] | 1700 | 700 | 140 | 8.7 | 4100 | 4400 | 4500 | 142 | 3000 | 300 | 20 |  |
